Assay results taken from patent US8759535B2, “Substituted fused imidazole derivatives, pharmaceutical compositions, and methods of use thereof” (High Point Pharmaceuticals, LLC, priority 2010, dated 2014).

Tested on: HMOX1
Assay: HMOX1 Protein Assay (immunostaining of HO-1 in NHLF cells, GE InCell 1000)
Type: cell-based
Conditions: Homo sapiens, fold change above DMSO treated cells, 16 h; for fold induction at 3 µM: 3 μM compound (asterisk); for fold induction at 5 µM: 5 μM compound
How it was run: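 NHLF cells seeded overnight in FGM-2, then exposed to compound or DMSO vehicle for 16 h, fixed, and immunostained for HO-1 with Hoechst nuclear counterstain; imaged on InCell 1000. Values are fold change over DMSO-treated cells, generally at 5 μM (0.8% DMSO), with asterisked entries at 3 μM.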

Row | Structure (SMILES) | fold induction at 3 µM | fold induction at 5 µM
1 | Cn1c(Nc2nc3ccc(C(F)(F)F)cc3s2)nc2cc(C(=O)NCCF)ccc21 [Example 210, 1-Methyl-2-(6-trifluoromethyl-benzothiazol-2-ylamino)-1H-benzoimidazole-5-carboxylic acid (2-fluoro-ethyl)-amide] | 29.9 | 
2 | Cn1c(Nc2nc3ccc(OC(F)(F)F)cc3s2)nc2cc(C(=O)NCC#N)ccc21 [Example 211, 1-Methyl-2-(6-trifluoromethoxy-benzothiazol-2-ylamino)-1H-benzoimidazole-5-carboxylic acid cyanomethyl-amide] |  | 46.1
3 | Cn1c(Nc2nc3ccc(OC(F)(F)F)cc3s2)nc2cc(C(=O)NCCC#N)ccc21 [Example 212, 1-Methyl-2-(6-trifluoromethoxy-benzothiazol-2-ylamino)-1H-benzoimidazole-5-carboxylic acid (2-cyano-ethyl)-amide] |  | 48.8
4 | Cn1c(Nc2nc3ccc(Cl)cc3s2)nc2cc(C(=O)NCCC#N)ccc21 [Example 213, 2-(6-Chloro-benzothiazol-2-ylamino)-1-methyl-1H-benzoimidazole-5-carboxylic acid (2-cyano-ethyl)-amide] |  | 48.6
5 | Cn1c(Nc2nc3ccc(Cl)cc3s2)nc2cc(C(=O)NCCCO)ccc21 [Example 214, 2-(6-Chloro-benzothiazol-2-ylamino)-1-methyl-1H-benzoimidazole-5-carboxylic acid (3-hydroxy-propyl)-amide] |  | 42.4
6 | CC(O)CCNC(=O)c1ccc2c(c1)nc(Nc1nc3ccc(Cl)cc3s1)n2C (centres unmarked) [Example 215, 2-(6-Chloro-benzothiazol-2-ylamino)-1-methyl-1H-benzoimidazole-5-carboxylic acid (3-hydroxy-butyl)-amide] | 16 | 
7 | CC(O)CCNC(=O)c1ccc2c(c1)nc(Nc1nc3ccc(C(F)(F)F)cc3s1)n2C (centres unmarked) [Example 216, 1-Methyl-2-(6-trifluoromethyl-benzothiazol-2-ylamino)-1H-benzoimidazole-5-carboxylic acid (3-hydroxy-butyl)-amide] | 31.6 | 
8 | Cn1c(Nc2nc3ccc(OC(F)(F)F)cc3s2)nc2cc(C(=O)NCC(C)(C)CO)ccc21 [Example 217, 1-Methyl-2-(6-trifluoromethoxy-benzothiazol-2-ylamino)-1H-benzoimidazole-5-carboxylic acid (3-hydroxy-2,2-dimethyl-propyl)-amide] |  | 20.7
9 | Cn1c(Nc2nc3ccc(Cl)cc3s2)nc2cc(C(=O)NCC(C)(C)CO)ccc21 [Example 218, 2-(6-Chloro-benzothiazol-2-ylamino)-1-methyl-1H-benzoimidazole-5-carboxylic acid (3-hydroxy-2,2-dimethyl-propyl)-amide] |  | 39.2
10 | Cn1c(Nc2nc3ccc(OC(F)(F)F)cc3s2)nc2cc(C(=O)NCCCCO)ccc21 [Example 219, 1-Methyl-2-(6-trifluoromethoxy-benzothiazol-2-ylamino)-1H-benzoimidazole-5-carboxylic acid (4-hydroxy-butyl)-amide] |  | 40
11 | Cn1c(Nc2nc3ccc(Cl)cc3s2)nc2cc(C(=O)NCCCCO)ccc21 [Example 220, 2-(6-Chloro-benzothiazol-2-ylamino)-1-methyl-1H-benzoimidazole-5-carboxylic acid (4-hydroxy-butyl)-amide] |  | 61.9
12 | Cn1c(Nc2nc3ccc(C(F)(F)F)cc3s2)nc2cc(C(=O)NCCCCO)ccc21 [Example 221, 1-Methyl-2-(6-trifluoromethyl-benzothiazol-2-ylamino)-1H-benzoimidazole-5-carboxylic acid (4-hydroxy-butyl)-amide] | 26 | 
13 | Cn1c(Nc2nc3ccc(OC(F)(F)F)cc3s2)nc2cc(C(=O)NCCCCO)c(F)cc21 [Example 222, 6-Fluoro-1-methyl-2-(6-trifluoromethoxy-benzothiazol-2-ylamino)-1H-benzoimidazole-5-carboxylic acid (4-hydroxy-butyl)-amide] |  | 49.9
14 | C[C@@H](CO)CCNC(=O)c1ccc2c(c1)nc(Nc1nc3ccc(OC(F)(F)F)cc3s1)n2C [Example 223, 1-Methyl-2-(6-trifluoromethoxy-benzothiazol-2-ylamino)-1H-benzoimidazole-5-carboxylic acid ((R)-4-hydroxy-3-methyl-butyl)-amide] |  | 44.7
15 | C[C@@H](CO)CCNC(=O)c1ccc2c(c1)nc(Nc1nc3ccc(Cl)cc3s1)n2C [Example 224, 2-(6-Chloro-benzothiazol-2-ylamino)-1-methyl-1H-benzoimidazole-5-carboxylic acid ((R)-4-hydroxy-3-methyl-butyl)-amide] | 15.5 | 
16 | Cn1c(Nc2nc3ccc(Cl)cc3s2)nc2cc(C(=O)N[C@H]3CC[C@H](O)CC3)ccc21 [Example 225, 2-(6-Chloro-benzothiazol-2-ylamino)-1-methyl-1H-benzoimidazole-5-carboxylic acid (trans-4-hydroxy-cyclohexyl)-amide] | 17.7 | 
17 | Cn1c(Nc2nc3ccc(OC(F)(F)F)cc3s2)nc2cc(C(=O)NCCCCCO)ccc21 [Example 226, 1-Methyl-2-(6-trifluoromethoxy-benzothiazol-2-ylamino)-1H-benzoimidazole-5-carboxylic acid (5-hydroxy-pentyl)-amide] |  | 23.3
18 | Cn1c(Nc2nc3ccc(Cl)cc3s2)nc2cc(C(=O)NCCCCCO)ccc21 [Example 227, 2-(6-Chloro-benzothiazol-2-ylamino)-1-methyl-1H-benzoimidazole-5-carboxylic acid (5-hydroxy-pentyl)-amide] | 14 | 
19 | Cn1c(Nc2nc3ccc(C(F)(F)F)cc3s2)nc2cc(C(=O)NCCCCCO)ccc21 [Example 228, 1-Methyl-2-(6-trifluoromethyl-benzothiazol-2-ylamino)-1H-benzoimidazole-5-carboxylic acid (5-hydroxy-pentyl)-amide] | 26 | 
20 | Cn1c(Nc2nc3ccc(OC(F)(F)F)cc3s2)nc2cc(C(=O)NCCCC(C)(C)CO)ccc21 [Example 229, 1-Methyl-2-(6-trifluoromethoxy-benzothiazol-2-ylamino)-1H-benzoimidazole-5-carboxylic acid (5-hydroxy-4,4-dimethyl-pentyl)-amide] |  | 14.4
21 | Cn1c(Nc2nc3ccc(OC(F)(F)F)cc3s2)nc2cc(C(=O)NCc3ccc(O)cc3)ccc21 [Example 230, 1-Methyl-2-(6-trifluoromethoxy-benzothiazol-2-ylamino)-1H-benzoimidazole-5-carboxylic acid 4-hydroxy-benzylamide] |  | 29.8
22 | COc1ccc(CNC(=O)c2ccc3c(c2)nc(Nc2nc4ccc(OC(F)(F)F)cc4s2)n3C)cc1O [Example 231, 1-Methyl-2-(6-trifluoromethoxy-benzothiazol-2-ylamino)-1H-benzoimidazole-5-carboxylic acid 3-hydroxy-4-methoxy-benzylamide] |  | 30.2
23 | Cn1c(Nc2nc3ccc(OC(F)(F)F)cc3s2)nc2cc(C(=O)NC[C@H]3CC[C@H](O)CC3)ccc21 [Example 232, 1-Methyl-2-(6-trifluoromethoxy-benzothiazol-2-ylamino)-1H-benzoimidazole-5-carboxylic acid (trans-4-hydroxy-cyclohexylmethyl)-amide] |  | 33
